Columns and labels:
[1] = molecular target: T1, serotonine transporter (SERT) receptor (Homo sapiens, UniProt P31645); assay: Binding assay SERT (h), [3H]imipramine, CHO cells; conditions: read-out: SERT [%]
T1 construct: expressed in transfected cells; host or cells: CHO cells
Experimental: (§1) The specific ligand binding to the receptors is defined as the difference between the total binding and the nonspecific binding determined in the presence of an excess of so unlabelled ligand.
(§2) The specific Ligand binding to the receptor is defined as the difference between total and non-specific binding determined in the presence of an excess of unlabelled ligand. The compounds were tested at a concentration of 1×10^−6 M, and scintillation counting was the method of detection of ligand binding.

[2] = molecular target: serotoninergic 5-HT7 receptor (Homo sapiens, UniProt P34969); assay: Binding assay 5-HT7 (h), [3H]LSD, CHO cells; design: expressed in transfected cells; host or cells: CHO cells; conditions: read-out: 5-HT7
Experimental: as §1, §2

adrenergic α1 receptor = assay: Binding assay α1 (non-selective), [3H]prazosin, rat cerebral cortex; conditions: percent inhibition of control specific binding; compounds tested at 1×10^−6 M
Experimental: as §1, §2

[3] = molecular target: serotoninergic 5-HT2A receptor (Homo sapiens, UniProt P28223); assay: Binding assay 5-HT2A (h), [3H]ketanserin, HEK-293 cells; design: expressed in transfected cells; host or cells: HEK-293 cells; conditions: read-out: 5-HT2A
Experimental: as §1, §2

[4] = molecular target: serotoninergic 5-HT6 receptor (Homo sapiens, UniProt P50406); assay: Binding assay 5-HT6 (h), [3H]LSD, CHO cells; design: expressed in transfected cells; host or cells: CHO cells; conditions: read-out: 5-HT6
Experimental: as §1, §2

[5] = molecular target: T2, serotoninergic 5-HT1A receptor (Homo sapiens, UniProt P08908); assay: Binding assay 5-HT1A (h), [3H]8-OH-DPAT, HEK-293 cells; design: expressed in transfected cells; host or cells: HEK-293 cells; conditions: read-out: 5-HT1A
T2 sequence (P08908 1-422): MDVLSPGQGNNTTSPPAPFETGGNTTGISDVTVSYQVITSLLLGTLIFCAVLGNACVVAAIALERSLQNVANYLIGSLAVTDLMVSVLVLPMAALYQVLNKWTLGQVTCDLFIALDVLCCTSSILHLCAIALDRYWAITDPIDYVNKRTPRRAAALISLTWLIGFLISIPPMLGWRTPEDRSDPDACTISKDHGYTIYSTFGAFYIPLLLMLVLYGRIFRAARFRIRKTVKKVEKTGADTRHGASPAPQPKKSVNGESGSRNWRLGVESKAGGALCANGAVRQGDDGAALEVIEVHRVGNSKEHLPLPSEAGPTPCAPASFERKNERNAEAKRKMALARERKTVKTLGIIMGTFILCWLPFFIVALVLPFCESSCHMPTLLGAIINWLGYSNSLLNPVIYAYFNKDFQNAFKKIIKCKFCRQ
Experimental: as §1, §2

dopaminergic D3 receptor = dopaminergic D3 receptor (Homo sapiens, UniProt P35462); assay: Binding assay D3 (h), [3H]methyl-spiperone, CHO cells; design: expressed in transfected cells; host or cells: CHO cells; conditions: read-out: D3 [%]
Experimental: as §1, §2

dopaminergic D2 receptor = dopaminergic D2 receptor (Homo sapiens, UniProt P14416); assay: Binding assay D2S (h), [3H]methyl-spiperone, HEK-293 cells; design: expressed in transfected cells; host or cells: HEK-293 cells; conditions: read-out: D2 [%]
Experimental: as §1, §2

T1 sequence (P31645 whole entry): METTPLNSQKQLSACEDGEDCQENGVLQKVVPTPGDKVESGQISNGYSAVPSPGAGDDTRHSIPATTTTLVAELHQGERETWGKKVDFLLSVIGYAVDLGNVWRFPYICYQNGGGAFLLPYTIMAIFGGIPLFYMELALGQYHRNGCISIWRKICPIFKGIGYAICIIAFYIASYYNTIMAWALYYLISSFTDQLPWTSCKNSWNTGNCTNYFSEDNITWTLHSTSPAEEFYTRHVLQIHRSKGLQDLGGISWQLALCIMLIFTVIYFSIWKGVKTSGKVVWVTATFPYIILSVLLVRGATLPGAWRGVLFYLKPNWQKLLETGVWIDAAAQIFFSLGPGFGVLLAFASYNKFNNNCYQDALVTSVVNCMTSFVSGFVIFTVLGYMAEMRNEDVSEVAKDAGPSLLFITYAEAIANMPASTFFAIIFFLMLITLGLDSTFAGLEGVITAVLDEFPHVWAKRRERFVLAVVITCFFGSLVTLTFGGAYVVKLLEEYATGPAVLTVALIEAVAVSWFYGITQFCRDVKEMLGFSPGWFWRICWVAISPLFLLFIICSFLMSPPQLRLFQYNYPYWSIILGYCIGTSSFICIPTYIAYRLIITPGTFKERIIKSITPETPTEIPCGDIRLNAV
Sequence of dopaminergic D2 receptor (P14416 1-414 isoform P14416-2): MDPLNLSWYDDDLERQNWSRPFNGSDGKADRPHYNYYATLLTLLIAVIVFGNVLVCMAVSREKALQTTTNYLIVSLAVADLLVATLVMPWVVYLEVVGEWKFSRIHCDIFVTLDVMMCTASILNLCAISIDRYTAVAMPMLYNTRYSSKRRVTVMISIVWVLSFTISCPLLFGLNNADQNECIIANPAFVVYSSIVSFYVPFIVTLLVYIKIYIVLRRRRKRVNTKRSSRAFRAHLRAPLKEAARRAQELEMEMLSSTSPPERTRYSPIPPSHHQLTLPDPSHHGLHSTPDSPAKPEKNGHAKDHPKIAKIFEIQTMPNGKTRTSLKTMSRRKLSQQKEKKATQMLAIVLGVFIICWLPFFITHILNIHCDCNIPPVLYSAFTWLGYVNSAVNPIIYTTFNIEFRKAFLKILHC
Sequence of dopaminergic D3 receptor (P35462 whole entry): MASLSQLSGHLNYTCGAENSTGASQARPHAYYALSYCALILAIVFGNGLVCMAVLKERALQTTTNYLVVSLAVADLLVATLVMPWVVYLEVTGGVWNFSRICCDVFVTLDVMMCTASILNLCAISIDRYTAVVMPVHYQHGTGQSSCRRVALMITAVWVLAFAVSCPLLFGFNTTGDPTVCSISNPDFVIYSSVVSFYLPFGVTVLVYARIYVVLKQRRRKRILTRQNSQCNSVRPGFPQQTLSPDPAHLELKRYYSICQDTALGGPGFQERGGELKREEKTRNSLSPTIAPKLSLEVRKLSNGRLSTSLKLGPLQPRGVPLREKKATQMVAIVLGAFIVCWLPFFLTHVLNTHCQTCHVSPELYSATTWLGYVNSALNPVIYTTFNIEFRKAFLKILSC
Sequence of serotoninergic 5-HT6 receptor (P50406 whole entry): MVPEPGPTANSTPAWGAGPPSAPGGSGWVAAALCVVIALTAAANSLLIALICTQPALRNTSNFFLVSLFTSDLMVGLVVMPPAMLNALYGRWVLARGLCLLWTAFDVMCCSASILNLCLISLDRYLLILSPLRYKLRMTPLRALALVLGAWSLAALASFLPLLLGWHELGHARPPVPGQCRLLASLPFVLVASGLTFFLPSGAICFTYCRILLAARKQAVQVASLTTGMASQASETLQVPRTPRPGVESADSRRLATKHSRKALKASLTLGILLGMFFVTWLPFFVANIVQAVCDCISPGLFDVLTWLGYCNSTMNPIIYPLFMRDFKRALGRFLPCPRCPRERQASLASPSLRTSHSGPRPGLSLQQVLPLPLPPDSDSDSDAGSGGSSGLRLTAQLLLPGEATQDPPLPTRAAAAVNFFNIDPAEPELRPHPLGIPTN
Sequence of serotoninergic 5-HT7 receptor (P34969 whole entry): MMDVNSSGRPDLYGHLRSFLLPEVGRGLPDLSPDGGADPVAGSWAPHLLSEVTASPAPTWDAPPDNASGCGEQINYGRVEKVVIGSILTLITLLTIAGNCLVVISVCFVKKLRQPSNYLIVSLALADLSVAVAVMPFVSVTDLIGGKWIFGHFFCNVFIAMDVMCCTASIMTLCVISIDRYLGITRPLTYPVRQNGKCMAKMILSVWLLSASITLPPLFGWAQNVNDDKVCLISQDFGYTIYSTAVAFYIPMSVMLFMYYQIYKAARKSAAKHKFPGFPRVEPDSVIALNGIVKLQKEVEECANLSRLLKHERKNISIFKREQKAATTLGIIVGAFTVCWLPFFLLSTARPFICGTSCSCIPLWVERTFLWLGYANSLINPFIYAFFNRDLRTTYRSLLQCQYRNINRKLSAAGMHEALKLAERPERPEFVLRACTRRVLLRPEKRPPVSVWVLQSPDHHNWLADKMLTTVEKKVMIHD
Sequence of serotoninergic 5-HT2A receptor (P28223 whole entry): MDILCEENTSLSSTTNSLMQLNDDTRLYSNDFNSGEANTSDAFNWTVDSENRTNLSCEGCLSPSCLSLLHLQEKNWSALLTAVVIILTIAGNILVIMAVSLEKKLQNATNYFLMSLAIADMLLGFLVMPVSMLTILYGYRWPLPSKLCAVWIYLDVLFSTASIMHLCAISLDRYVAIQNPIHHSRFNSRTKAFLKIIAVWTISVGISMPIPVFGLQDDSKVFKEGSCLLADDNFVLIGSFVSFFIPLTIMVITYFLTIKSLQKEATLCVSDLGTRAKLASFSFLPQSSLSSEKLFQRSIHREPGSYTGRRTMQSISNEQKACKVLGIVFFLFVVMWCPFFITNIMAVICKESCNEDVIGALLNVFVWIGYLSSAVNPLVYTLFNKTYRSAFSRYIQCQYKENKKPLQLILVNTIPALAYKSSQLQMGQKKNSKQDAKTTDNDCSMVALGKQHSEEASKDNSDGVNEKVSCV

SMILES | inhibition at 1 µM [1] | inhibition at 1 µM [2] | α1 [%] (adrenergic α1 receptor) | inhibition at 1 µM [3] | inhibition at 1 µM [4] | inhibition at 1 µM [5] | inhibition at 1 µM (dopaminergic D3 receptor) | inhibition at 1 µM (dopaminergic D2 receptor)
O=S(=O)(NCCCCN1CCC(c2noc3cc(F)ccc23)CC1)c1cccc(Br)c1 [Compound 109, 3-Bromo-N-[4-[4-(6-fluoro-1,2-benzoxazol-3-yl)piperidin-1-yl]butyl]benzenesulphonamide] | 15% | 92% | 101% | 93% | 84% | 86% | 99% | 100%
O=S(=O)(NCCCCN1CCC(c2noc3cc(F)ccc23)CC1)c1ccc(-c2ccccc2)cc1 [Compound 111, N-[4-[4-(6-Fluoro-1,2-benzoxazol-3-yl)piperidin-1-yl]butyl]-4-phenylbenzenesulphonamide] | -14% | 93% | 100% | 96% | 95% | 39% | 93% | 108%
O=S(=O)(NCCCN1CCC(c2noc3cc(F)ccc23)CC1)c1ccc(-c2ccccc2)cc1 [Compound 112, N-[3-[4-(6-Fluoro-1,2-benzoxazol-3-yl)piperidin-1-yl]propyl]-4-phenylbenzenesulphonamide] | -17% | 95% | 99% | 93% | 94% | 20% | 98% | 103%
Cc1[nH]c2ccc(Cl)cc2c1C1=CCN(CCCCNS(=O)(=O)c2cccc(Cl)c2)CC1 [Compound 137, N-[4-[4-(5-Chloro-2-methyl-1H-indol-3-yl)-3,6-dihydro-2H-pyridin-1-yl]butyl]-3-chlorobenzenesulphonamide] | 38% | 33% | 10% | 47% | 91% | 39% | 92% | 65%
Cc1[nH]c2ccc(Cl)cc2c1C1=CCN(CCCNS(=O)(=O)c2cccc(Cl)c2)CC1 [Compound 138, N-[3-[4-(5-Chloro-2-methyl-1H-indol-3-yl)-3,6-dihydro-2H-pyridin-1-yl]propyl]-3-chlorobenzenesulphonamide] | 25% | 52% | 8% | 62% | 95% | 54% | 57% | 40%
Cc1[nH]c2ccc(Cl)cc2c1C1=CCN(CCCCNS(=O)(=O)c2cccc(F)c2)CC1 [Compound 139, N-[4-[4-(5-Chloro-2-methyl-1H-indol-3-yl)-3,6-dihydro-2H-pyridin-1-yl]butyl]-3-fluorobenzenesulphonamide] | 17% | 56% | 20% | 41% | 96% | 57% | 92% | 52%
Cc1[nH]c2ccc(Cl)cc2c1C1=CCN(CCCNS(=O)(=O)c2cccc(F)c2)CC1 [Compound 140, N-[3-[4-(5-Chloro-2-methyl-1H-indol-3-yl)-3,6-dihydro-2H-pyridin-1-yl]propyl]-3-fluorobenzenesulphonamide] | 14% | 81% | 17% | 68% | 92% | 56% | 73% | 47%
Cc1c(S(=O)(=O)NCCCCN2CCN(c3cccc4[nH]c(=O)[nH]c34)CC2)sc2ccc(Cl)cc12 [Compound 165, 5-Chloro-3-methyl-N-[4-[4-(2-oxo-1,3-dihydrobenzimidazol-4-yl)piperazin-1-yl]butyl]-1-benzothiophene-2-sulfonamide] | 4% | 86% | 47% | 37% | -16% | 70% | 89% | 64%
O=S(=O)(NCCCCN1CCN(c2nsc3ccccc23)CC1)c1ccc(Cl)s1 [Compound 195, N-[4-[4-(1,2-Benzothiazol-3-yl)piperazin-1-yl]butyl]-5-chloro-thiophene-2-sulphonamide] | -3% | 98% | 96% | 91% | 60% | 89% | 89% | 99%
O=C1COc2c(cccc2N2CCN(CCCCNS(=O)(=O)c3cccc(Cl)c3)CC2)N1 [Compound 209, 3-Chloro-N-[4-[4-(3-oxo-4H-1,4-benzoxazin-8-yl)piperazin-1-yl]butyl]benzenesulphonamide] | -1% | 85% | 90% | 29% | 70% | 92% | 103% | 82%
O=C1COc2c(cccc2N2CCN(CCCCNS(=O)(=O)c3cccc(F)c3)CC2)N1 [Compound 211, 3-Fluoro-N-[4-[4-(3-oxo-4H-1,4-benzoxazin-8-yl)piperazin-1-yl]butyl]benzenesulphonamide] | 33% | 81% | 80% | 32% | 32% | 86% | 102% | 81%
O=S(=O)(NCCCCN1CCN(c2nsc3ccccc23)CC1)c1ccc(F)cc1 [Compound 225, N-[4-[4-(1,2-Benzothiazol-3-yl)piperazin-1-yl]butyl]-4-fluorobenzenesulphonamide] | -4% | 92% | 94% | 84% | 74% | 87% | 76% | 77%
O=S(=O)(NCCCCN1CCN(c2nsc3ccccc23)CC1)c1ccc(F)c(F)c1 [Compound 226, N-[4-[4-(1,2-Benzothiazol-3-yl)piperazin-1-yl]butyl]-3,4-difluorobenzenesulphonamide] | 4% | 92% | 94% | 100% | 78% | 90% | 90% | 87%
O=S(=O)(NCCCCN1CCN(c2nsc3ccccc23)CC1)c1ccc(Cl)cc1 [Compound 227, N-[4-[4-(1,2-Benzothiazol-3-yl)piperazin-1-yl]butyl]-4-chlorobenzenesulphonamide] | 2% | 94% | 92% | 90% | 76% | 89% | 90% | 104%
O=S(=O)(NCCCCN1CCN(c2nsc3ccccc23)CC1)c1ccc(Cl)c(Cl)c1 [Compound 228, N-[4-[4-(1,2-Benzothiazol-3-yl)piperazin-1-yl]butyl]-3,4-dichlorobenzenesulphonamide] | 16% | 98% | 92% | 91% | 87% | 81% | 92% | 103%
O=S(=O)(NCCCCN1CCN(c2nsc3ccccc23)CC1)c1ccc(Br)cc1 [Compound 229, N-[4-[4-(1,2-Benzothiazol-3-yl)piperazin-1-yl]butyl]-4-bromobenzenesulphonamide] | 9% | 89% | 96% | 80% | 75% | 92% | 95% | 101%

Source: patent publication US8822517B2, “Arylosulfonamides for the treatment of CNS diseases” (Adamed SP. Z O.O., priority 2010, dated 2014)
